# Results published in patent publication US7655651B2, “Amide derivatives of 3-phenyl-dihydropyrimido[4,5-d]pyrimidinones, their manufacture and use as pharmaceutical agents” (Hoffmann-La Roche Inc., priority 2004, dated 2010).
# pIC50: −log10 of the molar value.
# Molecular target: T1, Src (p60^c-src, partially purified) (Homo sapiens, UniProt P12931)
# T1 construct: purchased UBI, Upstate Biotech, Inc
# Assay: SRC-Inhibitor-Assay (time-resolved fluorescence kinase assay)
# Format: biochemical
# Settings: ATP 5 μM; peptide 10 μM; enzyme 2.5 U/ml; enzyme pre-incubated with inhibitor 15 min at 15° C.
# Experimental: The activity of the compounds according to this invention as inhibitors for the src-family tyrosine kinases was shown by using the following assay.
# SRC-Inhibitor-Assay Parameters:
# • whereby both peptides were synthesized by an optimized solid phase peptide synthesis protocol (Merrifield, Fed. Proc. Fed. Amer. Soc. Exp. Biol. 21 (1962) 412) on a Zinsser SMP350 peptide synthesizer. Shortly, the peptide was assembled on […] (22.8 μmol scale) of a Rink-Linker modified polystyrene solid phase by repeatedly conjugating an twenty fold excess of amino acids each protected by temporary piperidine labile Fmoc- and permanent acid labile tert-Bu-, BOC— and O-tert-Bu-groups depending on the side chain function. The substrate sequence AEEEIYGEFEAKKKK was N-terminal additionally mounted with the spacer amino acids Aminocaprylic acid and Glycin. After cleavage of the N-terminal temporary protecting group the still attached and protected peptide was labeled with a 1.5 fold amount of LightCycler-Red 640-N-hydroxy succinimide ester (purchased from Roche Diagnostics GmbH) and triethylamine. After 3 hrs. the resin washed with Dimethylformamide and Isopropanol until the eluates of the blue resin got colourless. […] The substrate was finally isolated by a preparative reverse phase HPLC purification. The purification yielded 12.2 mg RP-HPLC single peak pure blue material (lyophilisate). The identity was proven by MALDI mass spectroscopy [2720.0]. • Enzymes: Upstate Src (p60^c-src, partially purified) were purchased from UBI, Upstate Biotech, Inc.
# Time-resolved Fluorescence Assay: Reader: Perkin Elmer, Wallac Viktor 1420-040 multilabel counter; Liquid handling system: Beckman Coulter, Biomek 2000.
# ATP, Tween™ 20, 4-(2-hydroxyethyl)-1-piperazineethanesulfonic acid (HEPES) were purchased from Roche Molecular Biochemicals, MgCl2 and MnCl2 were purchased from Merck Eurolab, Tris(2-carboxyethyl)phosphine hydrochloride (TCEP) was purchased from Pierce, 384 Well low volume fluorescence plates was purchased from Falcon.
# At first the enzyme is pre-incubated for 15 min. at 15° C. in aqueous solution with corresponding amounts of inhibitors according to this invention. Then the phosphorylation reaction is started by adding a reaction mixture, containing ATP, Peptide and PT66, and subsequent shaking. The proceeding of this reaction is immediately monitored using time resolved fluorescence spectroscopy in a suitable well plate reader.
# The IC50-values can be obtained from the reaction rates by using a non-linear curve fit (XLfit software (ID Business Solution Ltd., Guilford, Surrey, UK))
# T1 sequence (P12931 whole entry): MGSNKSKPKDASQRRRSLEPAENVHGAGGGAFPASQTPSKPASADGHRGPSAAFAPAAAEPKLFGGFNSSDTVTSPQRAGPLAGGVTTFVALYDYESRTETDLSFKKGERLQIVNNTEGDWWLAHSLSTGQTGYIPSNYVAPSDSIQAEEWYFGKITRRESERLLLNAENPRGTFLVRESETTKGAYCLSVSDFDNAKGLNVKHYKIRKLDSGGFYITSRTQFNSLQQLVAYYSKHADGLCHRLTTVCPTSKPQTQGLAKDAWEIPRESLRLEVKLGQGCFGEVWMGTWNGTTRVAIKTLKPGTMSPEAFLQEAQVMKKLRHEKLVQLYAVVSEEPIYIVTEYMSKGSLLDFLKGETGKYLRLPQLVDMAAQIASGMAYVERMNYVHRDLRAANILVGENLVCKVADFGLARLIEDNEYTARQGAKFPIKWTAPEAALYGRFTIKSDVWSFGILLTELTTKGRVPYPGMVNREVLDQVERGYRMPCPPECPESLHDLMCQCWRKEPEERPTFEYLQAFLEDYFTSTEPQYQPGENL
row,SMILES,pIC50
1,"CCN(CC)CCOc1ccc(Nc2ncc3c(n2)N(C)C(=O)N(c2cc(NC(=O)c4ccc(-c5ccccc5)cc4)ccc2Cl)C3)cc1 [Example 1, Biphenyl-4-carboxylic acid (4-chloro-3-{7-[4-(2-diethylamino-ethoxy)-phenylamino]-1-methyl-2-oxo-1,4-dihydro-2H-pyrimido[4,5-d]pyrimidin-3-yl}-phenyl)-amide]",7.82 to 9.00
2,"CCN(CC)CCOc1ccc(Nc2ncc3c(n2)N(C)C(=O)N(c2cc(NC(=O)C4CCCCCC4)ccc2Cl)C3)cc1 [Example 2-2, Cycloheptanecarboxylic acid (4-chloro-3-{7-[4-(2-diethylamino-ethoxy)-phenylamino]-1-methyl-2-oxo-1,4-dihydro-2H-pyrimido[4,5-d]pyrimidin-3-yl}-phenyl)-amide; compound with acetic acid]",7.30 to 7.82
3,"CCN(CC)CCOc1ccc(Nc2ncc3c(n2)N(C)C(=O)N(c2cc(NC(=O)c4ccccc4)ccc2Cl)C3)cc1 [Example 2-6, N-(4-Chloro-3-{7-[4-(2-diethylamino-ethoxy)-phenylamino]-1-methyl-2-oxo-1,4-dihydro-2H-pyrimido[4,5-d]pyrimidin-3-yl}-phenyl)-benzamide]",8.62
4,"CCN(CC)CCOc1ccc(Nc2ncc3c(n2)N(C)C(=O)N(c2cc(NC(=O)c4ccc(OC)cc4)ccc2Cl)C3)cc1 [Example 2-7, N-(4-Chloro-3-{7-[4-(2-diethylamino-ethoxy)-phenylamino]-1-methyl-2-oxo-1,4-dihydro-2H-pyrimido[4,5-d]pyrimidin-3-yl}-phenyl)-4-methoxy-benzamide]",7.82 to 9.00
5,"CCN(CC)CCOc1ccc(Nc2ncc3c(n2)N(C)C(=O)N(c2cc(NC(=O)c4ccc(C#N)cc4)ccc2Cl)C3)cc1 [Example 2-8, N-(4-Chloro-3-{7-[4-(2-diethylamino-ethoxy)-phenylamino]-1-methyl-2-oxo-1,4-dihydro-2H-pyrimido[4,5-d]pyrimidin-3-yl}-phenyl)-4-cyano-benzamide]",9.00
6,"CCN(CC)CCOc1ccc(Nc2ncc3c(n2)N(C)C(=O)N(c2cc(NC(=O)CCc4ccc(O)cc4)ccc2Cl)C3)cc1 [Example 2-12, N-(4-Chloro-3-{7-[4-(2-diethylamino-ethoxy)-phenylamino]-1-methyl-2-oxo-1,4-dihydro-2H-pyrimido[4,5-d]pyrimidin-3-yl}-phenyl)-3-(4-hydroxy-phenyl)-propionamide; compound with acetic acid]",7.82 to 9.00
7,"CCN(CC)CCOc1ccc(Nc2ncc3c(n2)N(C)C(=O)N(c2cc(NC(=O)CCCc4ccccc4)ccc2Cl)C3)cc1 [Example 2-15, N-(4-Chloro-3-{7-[4-(2-diethylamino-ethoxy)-phenylamino]-1-methyl-2-oxo-1,4-dihydro-2H-pyrimido[4,5-d]pyrimidin-3-yl}-phenyl)-4-phenyl-butyramide]",7.30 to 7.82
8,"CCN(CC)CCOc1ccc(Nc2ncc3c(n2)N(C)C(=O)N(c2cc(NC(=O)C=Cc4ccccc4)ccc2Cl)C3)cc1 [Example 2-16, N-(4-Chloro-3-{7-[4-(2-diethylamino-ethoxy)-phenylamino]-1-methyl-2-oxo-1,4-dihydro-2H-pyrimido[4,5-d]pyrimidin-3-yl}-phenyl)-3-phenyl-acrylamide]",7.82 to 9.00
9,"CCN(CC)CCOc1ccc(Nc2ncc3c(n2)N(C)C(=O)N(c2cc(NC(=O)Cc4cccnc4)ccc2Cl)C3)cc1 [Example 2-21, N-(4-Chloro-3-{7-[4-(2-diethylamino-ethoxy)-phenylamino]-1-methyl-2-oxo-1,4-dihydro-2H-pyrimido[4,5-d]pyrimidin-3-yl}-phenyl)-2-pyridin-3-yl-acetamide]",7.30 to 7.82
10,"CCN(CC)CCOc1ccc(Nc2ncc3c(n2)N(C)C(=O)N(c2cc(NC(=O)CCc4cccnc4)ccc2Cl)C3)cc1 [Example 2-23, N-(4-Chloro-3-{7-[4-(2-diethylamino-ethoxy)-phenylamino]-1-methyl-2-oxo-1,4-dihydro-2H-pyrimido[4,5-d]pyrimidin-3-yl}-phenyl)-3-pyridin-3-yl-propionamide; compound with acetic acid]",7.82 to 9.00
